In patent publication US10293004B2, “Butyrate-producing bacterium and use thereof” (KABUSHIKI KAISHA YAKULT HONSHA, priority 2014, dated 2019):

Key:
[1] = tested on: mouse C57BL/6J; assay: Single oral dose test of YIT 12355 to mouse given indigestible saccharide; type: in vivo
Procedure: Mice were acclimatized and raised with F2 feed for 1 week and then divided into 4 groups such that the average body weight was almost equal among these groups. A control diet (Table 12) was administered thereto for 1 week. Then, the control diet was administered to the control group (−/− group) and the AH/− group for 2 weeks while purified feed containing maltitol (MAL-containing diet) was administered to the −/MAL group and the AH/MAL group for 2 weeks. A live cell suspension of YIT 12355 was administered at a single dose using a probe after the administration of the control diet for 1 week. At the final day of the test, each mouse was dissected, and the cecal contents were recovered. The cecal contents were subjected to the cell count measurement of YIT 12355. • Test material: Maltitol (5% mixed feed administration) • Administered bacterial strain: YIT 12355 • Animal species: Mouse C57BL/6J (4 weeks old; CLEA Japan, Inc.) • Group configuration: 7 mice×4 groups The bacterial solution (viable count: 3.1×10^9 cfu/mL, total cell count: 1.9×10^10 cells/mL) prepared in the preceding paragraph 2) was orally administered at a single dose of 0.2 mL (viable count: 6.2×10^8 cfu/mouse, total cell count: 3.8×10^9 cells/mouse) to each mouse using a probe. To the control group and the −/MAL group, 0.2 mL of physiological saline was administered instead of the bacterial solution. […] Then, the cecal contents were recovered. The cecal contents were diluted 10-fold with PBS and subjected to DNA extraction. DNA was extracted by the bead-phenol method described in the paragraph 4)a) of Example 5 from the 10-fold diluted solution of the intestinal tract contents. The cell count of YIT 12355 was measured by quantitative PCR using the obtained DNA as a template and the bacterial species-specific primers described in the paragraph 4)a) of Example 5. After fixation of a portion of the 10-fold diluted solution of the intestinal tract contents in a 4% solution of paraformaldehyde in PBS, the total cell count was measured by the DAPI counting method. The cell count of YIT 12355 was divided by the total cell count to calculate an occupancy (%). (Occupancy of YIT 12355) (%)=(Cell count of YIT 12355/Total cell count)×100 (Expression 5)

[2] = Turbidity (OD660) after anaerobic culture of bacterial strains in PYGA, PYSA or PYXA medium
Procedure: A frozen stock solution of each bacterial strain (a 10% (w/v) skim milk-2% sodium glutamate solution in which bacterial cells were suspended) (cell count: 2.0 to 5.5×10^10 cells/mL) was thawed, and the solution was inoculated at 1% to 4 mL of a PY liquid medium supplemented with 33 mM sodium acetate and 0.5 (w/v) % glucose (PYGA medium), followed by anaerobic culture at 37° C. for 24 hours. After the culture, the culture solution was inoculated at 1% to a fresh PYGA medium, followed by anaerobic culture at 37° C. for 24 hours. After the culture, the turbidity (OD660) of the culture solution was measured. Then, the culture solution was inoculated at 1% to a PY medium containing 0.5 (w/v) % L-sorbose or D-xylitol and 33 mM sodium acetate (the medium containing L-sorbose: PYSA, and the medium containing D-xylitol: PYXA), followed by anaerobic culture at 37° C. for 24 hours. Then, the turbidity (OD660) was measured.

[3] = summary in words of Table 13, single dose

A. hadrus (Eubacterium hadrum) YIT 12355 (NITE BP-01832)
Total cell count ([1]; cecum, DAPI counting method, single oral dose): 10.9 ± 0.4 log10 (cells/g contents) | Cell count, A. hadrus YIT 12355 ([1]; cecum, quantitative PCR, single oral dose): 8.0 ± 0.3 log10 (cells/g contents) | Occupancy ([1]; cecum, ratio to total cell count, single oral dose): 0.3% | cell count of YIT 12355 [1, 3]: largely changes neither | occupancy of YIT 12355 [1, 3]: largely changes neither | Turbidity (OD660) ([2]; after anaerobic culture at 37° C. for 24 hours in PYGA liquid medium): 3.55 | Turbidity (OD660) ([2]; anaerobic culture at 37° C. for 24 hours of 1% inoculum in PYSA (L-sorbose)): 2.39 | Turbidity (OD660) ([2]; anaerobic culture at 37° C. for 24 hours of 1% inoculum in PYXA (D-xylitol)): 1.47
